Measurements as given in ChEMBL document CHEMBL1275572, “KPC-2-producing Enterobacter cloacae and pseudomonas putida coinfection in a liver transplant recipient” (2009).
Converted amounts (≈) assume the structure as drawn.

Columns and labels:
Pseudomonas putida [1] = assay: Antimicrobial activity against Pseudomonas putida expressing beta-lactamase KPC-2 and SHV-12 obtained from criticall ill liver transplant recipient by broth microdilution method; assay type: functional
Enterobacter cloacae [2] = assay: Antimicrobial activity against Enterobacter cloacae expressing beta-lactamase KPC-2 and SHV-12 obtained from criticall ill liver transplant recipient by broth microdilution method; assay type: functional
Enterobacter cloacae [3] = assay: Antimicrobial activity against Enterobacter cloacae expressing beta-lactamase KPC-2 and SHV-12 obtained from criticall ill liver transplant recipient by broth microdilution method in presence of beta-lactamase inhibitor Tazobactam; assay type: functional
Pseudomonas putida [4] = assay: Antimicrobial activity against Pseudomonas putida expressing beta-lactamase KPC-2 and SHV-12 obtained from criticall ill liver transplant recipient by broth microdilution method in presence of beta-lactamase inhibitor Tazobactam; assay type: functional
Acinetobacter sp. = assay: Antimicrobial activity against Acinetobacter spp.; assay type: functional, organism-based

Description for Pseudomonas aeruginosa: Antimicrobial activity against Pseudomonas aeruginosa

Compound | MIC (Pseudomonas putida [1]) [µg/mL] | MIC (Enterobacter cloacae [2]) [µg/mL] | further results
C[C@@H](O)[C@H]1C(=O)N2C(C(=O)O)=C(S[C@@H]3CN[C@H](C(=O)Nc4cccc(C(=O)O)c4)C3)[C@H](C)[C@H]12 | > 8 | > 8 | 
CO/N=C(\C(=O)N[C@@H]1C(=O)N2C(C(=O)[O-])=C(C[N+]3(C)CCCC3)CS[C@H]12)c1csc(N)n1 | > 32 |  | 
NCC[C@H](O)C(=O)N[C@@H]1C[C@H](N)[C@@H](O[C@H]2O[C@H](CN)[C@@H](O)[C@H](O)[C@H]2O)[C@H](O)[C@H]1O[C@H]1O[C@H](CO)[C@@H](O)[C@H](N)[C@H]1O [AMIKACIN] | 1 (≈ 1.71 µM) | 16 (≈ 27.3 µM) | 
CO[C@@]1(NC(=O)Cc2cccs2)C(=O)N2C(C(=O)O)=C(COC(N)=O)CS[C@@H]21 [CEFOXITIN] | > 32 | > 32 | 
CC(C)(O/N=C(\C(=O)N[C@@H]1C(=O)N2C(C(=O)[O-])=C(C[n+]3ccccc3)CS[C@H]12)c1csc(N)n1)C(=O)O [CEFTAZIDIME] | > 32 | > 32 | 
CO/N=C(\C(=O)N[C@@H]1C(=O)N2C(C(=O)O)=C(CSc3nc(=O)c(O)nn3C)CS[C@H]12)c1csc(N)n1 [CEFTRIAXONE] | > 32 | > 32 | 
C[C@@H](O)[C@H]1C(=O)N2C(C(=O)O)=C(SCCNC=N)C[C@H]12 [IMIPENEM ANHYDROUS] | > 4 | > 4 | 
C[C@H]1COc2c(N3CCN(C)CC3)c(F)cc3c(=O)c(C(=O)O)cn1c23.C[C@H]1COc2c(N3CCN(C)CC3)c(F)cc3c(=O)c(C(=O)O)cn1c23.O [LEVOFLOXACIN] | > 16 | 2 | 
C[C@@H](O)[C@H]1C(=O)N2C(C(=O)O)=C(S[C@@H]3CN[C@H](C(=O)N(C)C)C3)[C@H](C)[C@H]12 [MEROPENEM] | > 4 | > 4 | 
CCN1CCN(C(=O)N[C@@H](C(=O)N[C@@H]2C(=O)N3[C@@H]2SC(C)(C)[C@@H]3C(=O)O)c2ccccc2)C(=O)C1=O [PIPERACILLIN] |  |  | MIC (Enterobacter cloacae [3]): > 128 µg/mL; MIC (Pseudomonas putida [4]): > 128 µg/mL
NC[C@H]1O[C@H](O[C@H]2[C@H](O)[C@@H](O[C@H]3O[C@H](CO)[C@@H](O)[C@H](N)[C@H]3O)[C@H](N)C[C@@H]2N)[C@H](N)C[C@@H]1O [TOBRAMYCIN] | > 8 | > 8 | 
COLISTIN | 2 | > 16 | MIC (Acinetobacter sp.): > 16 µg/mL; MIC (Pseudomonas aeruginosa): > 16 µg/mL
GENTAMICIN | > 8 | > 8 | 
